Source: PubChem BioAssay (NCI)
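Method: 48-hour compound exposure of cells in 96-well plates, five concentrations, linear interpolation of endpoints. Here, GI50 denotes the concentration required for 50% inhibition of growth. TGI: total growth inhibition.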

Experiments:
Assay in all cases: NCI-60 cell line screen, 48 h
[1] = test system: SF-295 CNS
[2] = test system: HCC-2998 colon
[3] = test system: M14 melanoma
[4] = test system: DU-145 prostate
[5] = test system: SK-MEL-5 melanoma
[6] = test system: UACC-62 melanoma
[7] = test system: CAKI-1 renal
[8] = test system: SN12C renal
[9] = test system: HT29 colon
[10] = test system: OVCAR-8 ovarian

| Compound | TGI [1] [µM] | TGI [2] [µM] | TGI [3] [µM] | TGI [4] [µM] | TGI [5] [µM] | TGI [6] [µM] | TGI [7] [µM] | TGI [8] [µM] | TGI [9] [µM] | TGI [10] [µM] | GI50 [1] [nM] | GI50 [2] [µM] | GI50 [5] [µM] | GI50 [6] [nM] | GI50 [7] [nM] | GI50 [8] [nM] | GI50 [9] [µM] | GI50 [10] [pM] | GI50 [4] [µM] |
| --- | --- | --- | --- | --- | --- | --- | --- | --- | --- | --- | --- | --- | --- | --- | --- | --- | --- | --- | --- |
| COc1ccc2cc(/C=N/NC(=O)Nc3ccccc3)ccc2c1 | > 100 | > 100 | > 100 | > 100 | > 100 | > 100 | > 100 | > 100 | > 100 | > 100 |  |  |  |  |  |  |  |  |  |
| CC(OC(C)(C)C)[C@H](NC(=O)OCC(Cl)(Cl)Cl)C(=O)O (some centres not stated) | > 100 | > 100 | > 100 |  | > 100 | > 100 | > 100 | > 100 | > 100 | > 100 |  |  |  |  |  |  |  |  |  |
| O=c1cnn(C/C=C/CO)c(=O)[nH]1 |  | > 100 | > 100 | > 100 | > 100 |  | > 100 | > 100 |  | > 100 |  |  |  |  |  |  |  |  |  |
| Cc1[nH]nc(C(F)(F)F)c1N=NN1CCOCC1 | 28.1 | 6.11 | 32.8 | 13.4 | 12.8 | 23.5 | 4.67 | 30.8 | 16.8 | 13.7 |  |  |  |  |  |  |  |  |  |
| O=C(O)CCC(NC(=O)c1ccc(Nc2nc3cc(C(F)(F)F)ccc3nc2-c2ccccc2)cc1)C(=O)O (configuration not stated) | > 100 | > 100 |  |  | > 100 | > 100 |  | > 100 | > 69.8 | > 100 |  |  |  |  |  |  |  |  |  |
| CC1(CCOCc2ccccc2)NC(=O)NC1=O (configuration not stated) | > 100 | > 100 | > 100 | > 100 | > 100 | > 100 | > 100 | > 100 | > 100 | > 100 |  |  |  |  |  |  |  |  |  |
| CCC(/C=C/C1OC(=O)C=CC1C)=C\C(C)C/C=C/C(C)=C/C(C)C(=O)C(C)C(O)C(C)C/C(C)=C/C(=O)O (configuration not stated) | 2.39 |  | 3.68e-05 |  |  |  |  | 12 | 13 | 9.77 | 0.0179 | 2.44 | 0.408 | 0.00223 | < 0.001 | 0.0696 | 4.95 | 1.54 |  |
| C=C(C)[C@@H]1CC[C@]2(C(=O)NC3CCCCC3)CC[C@]3(C)[C@H](CC[C@@H]4[C@@]5(C)CCCNC(C)(C)[C@@H]5CC[C@]43C)[C@@H]12 |  |  |  | 3.63 |  |  | 2.93 |  |  |  |  |  |  |  | 1560 |  |  |  | 1.91 |
| c1ccc(CCNc2ccccn2)nc1 | > 100 | > 100 | > 100 | > 100 | > 100 | > 100 | > 100 | > 100 | > 100 | > 100 |  |  |  |  |  |  |  |  |  |
| CC1(C)N=C(N)N=C(N)N1c1ccc(CCc2ccccc2)cc1 | > 100 | 42.1 |  |  | 9.63 | > 100 | > 100 | > 78.1 | > 100 | > 100 |  |  |  |  |  |  |  |  |  |
| O=C(Cn1c[n+](CC(=O)c2ccc(-c3ccccc3)cc2)c2ccccc21)Nc1cccc2cccnc12 | 3.26 | 2.74 |  | 5.71 | 3.11 | 2.84 | 6.16 |  |  |  | 1730 | 1.4 | 1.73 | 1400 | 2180 |  |  |  | 2.22 |
| NCc1ccccc1-c1c2nc(c(-c3ccccc3CN)c3ccc([nH]3)c(-c3ccccc3CN)c3nc(c(-c4ccccc4CN)c4ccc1[nH]4)C=C3)C=C2 |  | 76.3 | 48.7 |  | 63.7 | 54.1 |  | 39.8 | > 100 | > 100 |  |  |  |  |  |  |  |  |  |
